Source: US9650361B2, “N-(pyridin-2-yl)pyrimidin-4-amine derivatives containing a sulfoximine group” (BAYER PHARAM AKTIENGESELLSCHAFT, priority 2012, dated 2017)
In brackets after ≈: the same amount, converted by molar mass.

Legend:
[1] = Caco-2 permeation assay (Method 5); assay type: in vitro ADME; details: human, Caco-2, pH 7.2, 2 μM test compound; for Papp A→B at 2 h, 2 µM: read-out: Papp A-B (Mari); for Papp B→A at 2 h, 2 µM: read-out: Papp B-A (Mari); for efflux ratio at 2 h, 2 µM: Papp B-A / Papp A-B
Description: 5. Caco-2 Permeation Assay:
Caco-2 cells (purchased from DSMZ Braunschweig, Germany) were seeded at a density of 4.5×10^4 cells per well on 24 well insert plates, 0.4 μm pore size, and grown for 15 days in DMEM medium supplemented with 10% fetal bovine serum, 1% GlutaMAX (100×, GIBCO), 100 U/mL penicillin, 100 μg/mL streptomycin (GIBCO) and 1% non essential amino acids (100×). Cells were maintained at 37° C. in a humidified 5% CO2 atmosphere. Medium was changed every 2-3 day. Before running the permeation assay, the culture medium was replaced by a FCS-free hepes-carbonate transport buffer (pH 7.2). For assessment of monolayer integrity the transepithelial electrical resistance (TEER) was measured. Test compounds were predissolved in DMSO and added either to the apical or basolateral compartment in final concentration of 2 μM in transport buffer. Before and after 2 h incubation at 37° C. samples were taken from both compartments. Analysis of compound content was done after precipitation with methanol by LC/MS/MS analysis. Permeability (Papp) was calculated in the apical to basolateral (A→B) and basolateral to apical (B→A) directions. The apparent permeability was calculated using following equation: Papp=(Vr/Po)(1/S)(P2/t)
Where Vr is the volume of medium in the receiver chamber, Po is the measured peak area or height of the test drug in the donor chamber at t=o, S the surface area of the monolayer, P2 is the measured peak area of the test drug in the acceptor chamber after 2 h of incubation, and t is the incubation time. The efflux ratio basolateral (B) to apical (A) was calculated by dividing the Papp B-A by the Papp A-B. In addition the compound recovery was calculated. The following reference compounds were used for the classification of the permeability class: Antipyrine, Pyrazosin, Verapamil, Fluvastatin, Cimetidine, Ranitidine, Atenolol, Sulfasalazine.

[2] = Equilibrium shake flask solubility assay, thermodynamic solubility in citrate buffer pH 4 (Method 4b); assay type: physicochemical; details: aqueous buffer, thermodynamic from solid; citrate buffer pH 4, 24 h, room temperature; read-out: Solubility in Citrate buffer pH4
Description: 4b) Thermodynamic Solubility in Citrate Buffer pH 4
Thermodynamic solubility was determined by an equilibrium shake flask method [Literature: Edward H. Kerns and Li Di (2008) Solubility Methods in: Drug-like Properties: Concepts, Structure Design and Methods, p 276-286. Burlington, Mass.: Academic Press].
A saturated solution of the drug was prepared and the solution was mixed for 24 h to ensure that equilibrium has been reached. The solution was centrifuged to remove the insoluble fraction and the concentration of the compound in solution was determined using a standard calibration curve.
To prepare the sample, 1.5 mg solid compound was weighed in a 4 ml glass vial. 1 ml Citrate buffer pH 4 was added. The suspension was put on a stirrer and mixed for 24 hrs at room temperature. The solution was centrifuged afterwards. To prepare the sample for the standard calibration, 0.6 mg solid sample was dissolved in 19 ml acetonitrile/water 1:1. After sonification the solution was filled up with acetonitrile/water 1:1 to 20 ml.
Sample and standards were quantified by HPLC with UV-detection. For each sample two injection volumes (5 and 50 μl) in triplicates were made. Three injection volumes (5 μl, 10 μl and 20 μl) were made for the standard.
Citrate buffer pH 4 (MERCK Art. 109435; 1 L buffer consisting of 11,768 g citric acid,
4,480 g sodium hydroxide, 1,604 g hydrogen chloride)
Chromatographic conditions were as follows:
HPLC column: Xterra MS C18 2.5 μm 4.6×30 mm
Injection volume: Sample: 3×5 μl and 3×50 μl
• Standard: 5 μl, 10 μl, 20 μl Flow: 1.5 ml/min Mobile phase: acidic gradient: • A: Water/0.01% TFA • B: Acetonitrile/0.01% TFA • 0 min: 95% A 5% B • 0-3 min: 35% A 65% B, linear gradient • 3-5 min: 35% A 65% B, isocratic • 5-6 min: 95% A 5% B, isocratic UV detector: wavelength near the absorption maximum (between 200 and 400 nm)
(§1) The areas of sample- and standard injections as well as the calculation of the solubility value (in mg/l) were determined by using HPLC software (Waters Empower 2 FR).

[3] = Equilibrium shake flask solubility assay, thermodynamic solubility in water (Method 4a); assay type: physicochemical; details: aqueous buffer, thermodynamic from solid; phosphate buffer pH 6.5, 24 h, room temperature
Description: 4. Equilibrium Shake Flask Solubility Assay:
4a) Thermodynamic Solubility in Water
The thermodynamic solubility of compounds in water was determined by an equilibrium shake flask method (see for example: E. H. Kerns, L. Di: Drug-like Properties: Concepts, Structure Design and Methods, 276-286, Burlington, Mass., Academic Press, 2008). A saturated solution of the drug was prepared and the solution was mixed for 24 h to ensure that equilibrium was reached. The solution was centrifuged to remove the insoluble fraction and the concentration of the compound in solution was determined using a standard calibration curve. To prepare the sample, 2 mg solid compound was weighed in a 4 mL glass vial. 1 mL phosphate buffer pH 6.5 was added. The suspension was stirred for 24 hrs at room temperature. The solution was centrifuged afterwards. To prepare the sample for the standard calibration, 2 mg solid sample was dissolved in 30 mL acetonitrile. After sonification the solution was diluted with water to 50 mL. Sample and standards were quantified by HPLC with UV-detection. For each sample two injection volumes (5 and 50 μl) in triplicates were made. Three injection volumes (5 μl, […]) were made for the standard. […]
as §1

Papp A→B at 2 h, 2 µM [1] [×10⁻⁶ cm/s] | Papp B→A at 2 h, 2 µM [1] [×10⁻⁶ cm/s] | efflux ratio at 2 h, 2 µM [1] | solubility at 24 h [2] [µg/mL] | solubility at 24 h [3] [µg/mL] | Structure (SMILES)
4.5 | 20.6 | 4.58 | 11 (≈ 24.2 µM) |  | COc1cc(F)ccc1-c1cc(Nc2cc(CS(C)(=N)=O)cc(C(F)(F)F)n2)ncn1 (racemic) [Example 10, (rac)-6-(4-Fluoro-2-methoxyphenyl)-N-{4-[(S-methylsulfonimidoyl)methyl]-6-(trifluoromethyl)pyridin-2-yl}pyrimidin-4-amine]
3.9 | 28.9 | 7.49 | 157 (≈ 391 µM) |  | COc1cc(F)ccc1-c1cc(Nc2cc(CS(C)(=N)=O)cc(C)n2)ncn1 (racemic) [Example 7, (rac)-6-(4-Fluoro-2-methoxyphenyl)-N-{6-methyl-4-[(S-methylsulfonimidoyl)methyl]pyridin-2-yl}pyrimidin-4-amine]
 |  |  | 15 (≈ 35.6 µM) |  | COc1cc(F)ccc1-c1cc(Nc2cc(CS(C)(=N)=O)cc(Cl)n2)ncn1 (racemic) [Example 4, (rac)-N-{6-Chloro-4-[(S-methylsulfonimidoyl)methyl]pyridin-2-yl}-6-(4-fluoro-2-methoxyphenyl)pyrimidin-4-amine]
2.6 | 24.3 | 9.3 |  | 7 (≈ 18.1 µM) | COc1cc(F)ccc1-c1cc(Nc2cc(CS(C)(=N)=O)ccn2)ncn1 (racemic) [Example 1, (rac)-6-(4-Fluoro-2-methoxyphenyl)-N-{4-[(S-methylsulfonimidoyl)methyl]pyridin-2-yl}pyrimidin-4-amine]
